Data from US6875758B2, “Method of treating hyperlipidemic and hyperglycemic conditions in mammals using pregnadienols and pregnadienones” (Council of Scientific & Industrial Research, priority 1999, dated 2005).
Where “and” joins values, the source holds several entries; their conditions need not be identical. Identical values can stand only once.

Key:
[1] = system: Triton treated rats; experiment: Cholesterol lowering in Triton treated rats; type: in vivo, Charles Foster rats; settings: Rattus norvegicus, ip; 50 mg/kg i.p.; read-out: % Change S. Chol.
Description: The primary hypolipidemic effect of these compounds was established in triton induced hyperlipidemia in Charles Foster rats. […] The cholesterol lowering effect of some representative compounds of pregrenadienols and pregrenadienones as compared to clofibrate and gugulsterone in triton treated Charles Foster rats is described in Table-2.

[2] = system: hyperlipidemic rats (high fat diet); experiment: Hypolipidemic activity in diet induced hyperlipidemic rats; type: in vivo; settings: for LDL-Cholesterol: calculated
Experimental: Twenty three normal male rats average weight 110-120 g were taken for study and were divided into four groups. Group l: animals received special diet and 3β-hydroxypregna-5,16-dien-20-one (2) 50 mg/kg p.o. in 1% gum acacia. Group II: animals received 3β-hydroxypregna-5,16-dien-20-one (2), 100 mg/kg p.o. in 1% gum acacia and special diet. Group III: animals received special fat diet and 1% gum acacia and served as control. Group IV: animals were fed with stock diet and served as normal control. All animals were sacrificed at the end of 36 days. Blood was drawn from the tail at 10 days and from the aorta at the time of sacrifice for estimation of serum cholesterol, triglycerides and HDL-cholesterol. LDL-cholesterol was calculated as described. [Roschlau, P. In: Methods of Enzymatic Analysis 4th ed., H. U. Bergmeyer, Ed (Academic Press, New York) 1975 p 1890; Wahlefield, W. A. In: Methods of Enzymatic Analysis, 4th ed.; H. U. Bergmeyer, Ed. (Academic Press, New York) 1974 p 1831.]

[3] = system: hyperlipidemic male albino rabbits; experiment: Hypolipidemic activity in cholesterol fed hyperlipidemic rabbits (90 days); type: in vivo
Experimental: Effect of 3β-Hydroxypregna-5,16-dien-20-one (2) was studied on hypercholesterolemic albino rabbits. Twelve male albino rabbits (approx 1.5-2 kg) on a stock diet were made hyperlipidemic by feeding daily cholesterol 0.5 g/kg in 2 ml of groundnut oil for 45 days and then blood was drawn from the marginal vein in the ear of rabbits for serum cholesterol and triglycerides estimation.
Two controlled experiments were carried out for a period of three months. In one set of experiments, the control group received 0.5 g/kg of cholesterol for 90 days and 3β-Hydroxypregna-5,16-dien-20-one (2) in dose of 100 mg/kg and 50 mg/kg while in control group (given only cholesterol) a massive rise of serum cholesterol and triglycerides were seen after 90 days, the addition of 3β-Hydroxypregna-5,16dien-20-one (2) at 50 and 100 mg/kg doses kept the rise well under control. The percentage decrease at 100 mg dose was 28% at 30 days to 52% at 90 days for cholesterol and 45 to 81% for triglycerides. In the 50 mg/kg dose group the decrease percentage ranged from 40% at 30 days to 50% at 90 days for cholesterol and 45% at 30 days to 75% at 90 days for triglyceride (Table6)

[4] = system: streptozotocin induced diabetic rats; experiment: Hypoglycemic activity in streptozotocin induced hyperglycemic rats; type: in vivo; settings: 100 mg/kg p.o.
Experimental: Hyperglycemia in rats was produced by streptozotocin treatment. The animals showing blood glucose levels between 250-350 mg/dl were selected. Blood samples were collected after treatment at intervals and blood glucose levels were estimated immediately.

[5] = Hydroxy (OH) radical formation in nonenzymatic system (Fe2+, ascorbate, H2O2, deoxyribose); type: biochemical
[6] = system: isoproterneol induced myocardial necrosis in rat; experiment: Isoproterneol induced myocardial necrosis in rats; type: in vivo; settings: isoproterneol 85 mg/kg + drug 25 mg/kg p.o.
Description: The underlying cause of myocardial infarction is believed to be the progressive deposition of lipids and fibrotic material into the arterial wall. These pregnadienols and pregnadienous also provided cardiac protection as assessed in isoproterneol induced myocardial necrosis in rat model, which produces myocardial infarction due to an increased blood pressure and heart rate.

[7] = 50 mg/kg + cholesterol 0.5 g/kg, day 30
[8] = 50 mg/kg + cholesterol 0.5 g/kg, day 60
[9] = 50 mg/kg + cholesterol 0.5 g/kg, day 90
[10] = 100 mg/kg + cholesterol 0.5 g/kg, day 30
[11] = 100 mg/kg + cholesterol 0.5 g/kg, day 60
[12] = 100 mg/kg + cholesterol 0.5 g/kg, day 90

SMILES: CC(=O)C1=CC[C@H]2[C@@H]3CC=C4C[C@@H](O)CC[C@]4(C)[C@H]3CC[C@]12C [Compound 2, 3β-Hydroxypregna-5,16-dien-20-one]
- change in vivo at 50 mg/kg [1]: -46%
- HDL-Cholesterol ([2]; 50 mg/kg + HFD, Day 0): 34.8 ± 5.8 mg %
- LDL-Cholesterol ([2]; 50 mg/kg + HFD, Day 0): 24.5 ± 14.2 mg %
- HDL-Cholesterol ([2]; 50 mg/kg + HFD, Day 36): 37.57 ± 2.8 mg %
- HDL-Cholesterol % Change ([2]; 50 mg/kg + HFD, Day 36): 181%
- LDL-Cholesterol ([2]; 50 mg/kg + HFD, Day 36): 123.87 ± 14.0 mg %
- Serum Cholesterol ([2]; 50 mg/kg p.o. + HFD, day 0): 69.1 ± 9.9 mg %
- Serum Triglycerides ([2]; 50 mg/kg p.o. + HFD, day 0): 48.8 ± 7.0 mg %
- Serum Cholesterol ([2]; 50 mg/kg p.o. + HFD, day 10): 212.4 ± 23.8 mg %
- Serum Cholesterol % Decrease (compared to group III, HFD) ([2]; 50 mg/kg p.o. + HFD, day 10): 16%
- Serum Cholesterol ([2]; 50 mg/kg p.o. + HFD, day 36): 165 ± 26.7 mg %
- Serum Cholesterol % Decrease (compared to group III, HFD) ([2]; 50 mg/kg p.o. + HFD, day 36): 31%
- Serum Triglycerides ([2]; 50 mg/kg p.o. + HFD, day 36): 61.5 ± 10.5 mg %
- Serum Triglycerides % Decrease (compared to group III, HFD) ([2]; 50 mg/kg p.o. + HFD, day 36): 55%
- HDL-Cholesterol ([2]; 100 mg/kg + HFD, Day 0): 43.4 ± 8.3 mg %
- LDL-Cholesterol ([2]; 100 mg/kg + HFD, Day 0): 10.02 ± 8.5 mg %
- HDL-Cholesterol ([2]; 100 mg/kg + HFD, Day 36): 47.2 ± 3.7 mg %
- HDL-Cholesterol % Change ([2]; 100 mg/kg + HFD, Day 36): 161%
- LDL-Cholesterol ([2]; 100 mg/kg + HFD, Day 36): 48.64 ± 5.1 mg %
- Serum Cholesterol ([2]; 100 mg/kg p.o. + HFD, day 0): 60.8 ± 10.3 mg %
- Serum Triglycerides ([2]; 100 mg/kg p.o. + HFD, day 0): 50 ± 7.1 mg %
- Serum Cholesterol ([2]; 100 mg/kg p.o. + HFD, day 10): 145.5 ± 10.6 mg %
- Serum Cholesterol % Decrease (compared to group III, HFD) ([2]; 100 mg/kg p.o. + HFD, day 10): 48%
- Serum Cholesterol ([2]; 100 mg/kg p.o. + HFD, day 36): 106.4 ± 4.6 mg %
- Serum Cholesterol % Decrease (compared to group III, HFD) ([2]; 100 mg/kg p.o. + HFD, day 36): 59%
- Serum Triglycerides ([2]; 100 mg/kg p.o. + HFD, day 36): 53.0 ± 7.5 mg %
- Serum Triglycerides % Decrease (compared to group III, HFD) ([2]; 100 mg/kg p.o. + HFD, day 36): 62%
- S. Cholesterol [3, 7]: 190.5 mg %
- S. Triglycerides [3, 7]: 79.5 mg %
- S. Cholesterol [3, 8]: 305.5 mg %
- S. Triglycerides [3, 8]: 67.0 mg %
- S. Cholesterol [3, 9]: 660.3 mg %
- S. Triglycerides [3, 9]: 56.5 mg %
- S. Cholesterol % Decrease vs cholesterol control ([3]; 50 mg/kg, day 30): 40%
- S. Triglycerides % Decrease vs cholesterol control ([3]; 50 mg/kg, day 30): 45%
- S. Cholesterol % Decrease vs cholesterol control ([3]; 50 mg/kg, day 60): 43%
- S. Triglycerides % Decrease vs cholesterol control ([3]; 50 mg/kg, day 60): 64%
- S. Cholesterol % Decrease vs cholesterol control ([3]; 50 mg/kg, day 90): 50% and 51%
- S. Triglycerides % Decrease vs cholesterol control ([3]; 50 mg/kg, day 90): 75% and 76%
- S. Cholesterol [3, 10]: 213.3 mg %
- S. Triglycerides [3, 10]: 79.0 mg %
- S. Cholesterol [3, 11]: 309.3 mg %
- S. Triglycerides [3, 11]: 54.0 mg %
- S. Cholesterol [3, 12]: 633.7 mg %
- S. Triglycerides [3, 12]: 44.2 mg %
- S. Cholesterol % Decrease vs cholesterol control ([3]; 100 mg/kg, day 30): 28%
- S. Triglycerides % Decrease vs cholesterol control ([3]; 100 mg/kg, day 30): 45% and 46%
- S. Cholesterol % Decrease vs cholesterol control ([3]; 100 mg/kg, day 60): 42%
- S. Triglycerides % Decrease vs cholesterol control ([3]; 100 mg/kg, day 60): 64%
- S. Cholesterol % Decrease vs cholesterol control ([3]; 100 mg/kg, day 90): 52% and 53%
- S. Triglycerides % Decrease vs cholesterol control ([3]; 100 mg/kg, day 90): 81%
- Blood Glucose Level ([4]; 0 hr): 274 ± 9 mg/dL
- % lowering from zero hour value (blood glucose) ([4]; 1 hr): (11.3) %
- % lowering from zero hour value (blood glucose) ([4]; 2 hr): (15.6) %
- % lowering from zero hour value (blood glucose) ([4]; 3 hr): (25.9) %
- % lowering from zero hour value (blood glucose) ([4]; 4 hr): (33.2) %
- % lowering from zero hour value (blood glucose) ([4]; 5 hr): (42.7) %
- % lowering from zero hour value (blood glucose) ([4]; 6 hr): (51.4) %
- % lowering from zero hour value (blood glucose) ([4]; 7 hr): (62.7) %
- % lowering from zero hour value (blood glucose) ([4]; 8 hr): (66.7) %
- % lowering from zero hour value (blood glucose) ([4]; 24 hr): (52.2) %
- generation of OH radical (in words) [5]: inhibits the generation of OH radical in concentration dependent manner
- % inhibition of OH radical formation ([5]; 5 μmol/ml): (28) %
- OH radical formation ([5]; 5 μmol/ml): 65.0 ± 5.4 nmol MDA/hr
- % inhibition of OH radical formation ([5]; 10 μmol/ml): (42) %
- OH radical formation ([5]; 10 μmol/ml): 52.8 ± 4.2 nmol MDA/hr
- % inhibition of OH radical formation ([5]; 20 μmol/ml): (74) %
- OH radical formation ([5]; 20 μmol/ml): 23.3 ± 1.8 nmol MDA/hr
- % inhibition of OH radical formation ([5]; 30 μmol/ml): (87) %
- OH radical formation ([5]; 30 μmol/ml): 11.7 ± 1.3 nmol MDA/hr
- % inhibition of OH radical formation ([5]; 40 μmol/ml): (88) %
- OH radical formation ([5]; 40 μmol/ml): 10.4 ± 2.0 nmol MDA/hr
- % inhibition of OH radical formation ([5]; 50 μmol/ml): (90) %
- OH radical formation ([5]; 50 μmol/ml): 9.9 ± 0.8 nmol MDA/hr
- Heart Ca. - ATPase % Protection [6]: 30.2%
- Heart Glycogen % Protection [6]: 25.1%
- Heart Lipid peroxide % Protection [6]: 72.6%
- Heart Phospholipase % Protection [6]: 74.2%
- Serum Alkaline Phosphatase % Protection [6]: 24.0%
- Serum CPK % Protection [6]: 35.7%
- Serum GOT % Protection [6]: 27.0%
- Serum GPT % Protection [6]: 22.7%
